Measured values taken from patent US10730874B2 (Shire Human Genetic Therapies, Inc., priority 2018, dated 2020).

Biological target: human activated kallikrein enzyme (plasma kallikrein) (Homo sapiens (Human), UniProt P03952)
Assay: Inhibition of human activated plasma kallikrein, fluorogenic peptide substrate assay, 500 pM enzyme format
Assay type: biochemical
Conditions: 500 pM activated kallikrein enzyme, 300 uM Pro-Phe-Arg-7-amido-4-methylcoumarin substrate, 30 min preincubation, 10 min at RT; read-out: Primary Dose Response Assay: Average EC50
Outline: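 Buffer 20 mM Tris pH 7.5, EDTA, NaCl, PEG-400, Triton X-100; 300 uM Pro-Phe-Arg-AMC; enzyme–inhibitor preincubation 30 min RT. Format one: 500 pM kallikrein, 10 min RT reaction; format two: 5 pM kallikrein, 18 h RT reaction. Fluorescence read at 460 nm (380 nm excitation).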

Sequence of human activated kallikrein enzyme (plasma kallikrein) (P03952 391-638): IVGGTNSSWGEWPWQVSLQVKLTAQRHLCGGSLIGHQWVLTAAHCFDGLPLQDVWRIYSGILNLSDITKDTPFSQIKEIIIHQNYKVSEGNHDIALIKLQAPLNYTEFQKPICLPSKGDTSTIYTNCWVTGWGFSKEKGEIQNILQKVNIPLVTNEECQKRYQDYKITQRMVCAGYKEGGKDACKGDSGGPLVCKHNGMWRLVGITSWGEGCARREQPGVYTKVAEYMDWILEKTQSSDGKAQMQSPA
Sequence of human activated kallikrein enzyme (plasma kallikrein) (P03952 20-390 partner): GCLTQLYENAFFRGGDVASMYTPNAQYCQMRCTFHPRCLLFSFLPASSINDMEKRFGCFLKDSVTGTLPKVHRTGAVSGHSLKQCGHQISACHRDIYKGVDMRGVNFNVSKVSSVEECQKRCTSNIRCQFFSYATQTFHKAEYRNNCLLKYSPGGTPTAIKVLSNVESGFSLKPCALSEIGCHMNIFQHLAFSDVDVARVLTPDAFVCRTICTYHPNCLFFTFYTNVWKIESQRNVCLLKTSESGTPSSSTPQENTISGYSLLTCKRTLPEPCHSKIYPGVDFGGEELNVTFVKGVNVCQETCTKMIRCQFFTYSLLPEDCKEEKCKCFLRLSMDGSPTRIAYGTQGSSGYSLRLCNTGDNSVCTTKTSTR

| EC50 | SMILES |
| --- | --- |
| < 1 nM | O=C(NCc1ncn2ccc(Cl)cc12)c1cnn(Cc2cn3cc(C4CC4)cc(CO)c3n2)c1 [Example I-75, N-((7-chloroimidazo[1,5-a]pyridin-1-yl)methyl)-1-((6-cyclopropyl-8-(hydroxymethyl)imidazo[1,2-a]pyridin-2-yl)methyl)-1H-pyrazole-4-carboxamide] |
| < 1 nM | O=C(NCc1ncn2ccc(Br)cc12)c1cnn(Cc2cn3cc(C4CC4)cnc3n2)c1 [Example I-76, N-((7-bromoimidazo[1,5-a]pyridin-1-yl)methyl)-1-((6-cyclopropylimidazo[1,2-a]pyrimidin-2-yl)methyl)-1H-pyrazole-4-carboxamide] |
| 10 to 100 nM | CNc1cccc2nc(Cn3cc(C(=O)NCc4ncn5ccc(Cl)cc45)cn3)cn12 [Example I-77, N-((7-chloroimidazo[1,5-a]pyridin-1-yl)methyl)-1-((5-(methylamino)imidazo[1,2-a]pyridin-2-yl)methyl)-1H-pyrazole-4-carboxamide] |
| 1 to 10 nM | C#Cc1c(C2CC2)ccc2nc(Cn3cc(C(=O)NCc4ncn5ccc(Cl)cc45)cn3)cn12 [Example I-79, N-((7-chloroimidazo[1,5-a]pyridin-1-yl)methyl)-1-((6-cyclopropyl-5-ethynylimidazo[1,2-a]pyridin-2-yl)methyl)-1H-pyrazole-4-carboxamide] |
| < 1 nM | COC(=O)Cc1cc(C2CC2)cn2cc(Cn3cc(C(=O)NCc4ncn5ccc(Cl)cc45)cn3)nc12 [Example I-81, methyl 2-(2-((4-(((7-chloroimidazo[1,5-a]pyridin-1-yl)methyl)carbamoyl)-1H-pyrazol-1-yl)methyl)-6-cyclopropylimidazo[1,2-a]pyridin-8-yl)acetate] |
| 10 to 100 nM | O=C(NCc1nc(C(F)F)n2ccc(Br)cc12)c1cnn(Cc2cn3cc(C4CC4)ccc3n2)c1 [Example I-83, N-((7-bromo-3-(difluoromethyl)imidazo[1,5-a]pyridin-1-yl)methyl)-1-((6-cyclopropylimidazo[1,2-a]pyridin-2-yl)methyl)-1H-pyrazole-4-carboxamide] |
| 10 to 100 nM | O=C(NCc1ncn2ccc(Cl)cc12)c1cnn(Cc2cc3ncc(C4CC4)cc3[nH]2)c1 [Example I-84, N-((7-chloroimidazo[1,5-a]pyridin-1-yl)methyl)-1-((6-cyclopropyl-1H-pyrrolo[3,2-b]pyridin-2-yl)methyl)-1H-pyrazole-4-carboxamide] |
| 1 to 10 nM | Nc1c(C2CC2)ccc2nc(Cn3cc(C(=O)NCc4ncn5ccc(Cl)cc45)cn3)cn12 [Example I-88, 1-((5-amino-6-cyclopropylimidazo[1,2-a]pyridin-2-yl)methyl)-N-((7-chloroimidazo[1,5-a]pyridin-1-yl)methyl)-1H-pyrazole-4-carboxamide] |
| < 1 nM | [2H]C([2H])(NC(=O)c1cnn(Cc2cn3cc(C4CC4)ccc3n2)c1)c1ncn2ccc(Cl)cc12 [Example I-90, N-((7-chloroimidazo[1,5-a]pyridin-1-yl)methyl-d2)-1-((6-cyclopropylimidazo[1,2-a]pyridin-2-yl)methyl)-1H-pyrazole-4-carboxamide] |
| 10 to 100 nM | COC(=O)c1ccc2nc(Cn3cc(C(=O)NCc4ncn5ccc(Cl)cc45)cn3)cn2c1 [Example I-91, methyl 2-((4-(((7-chloroimidazo[1,5-a]pyridin-1-yl)methyl)carbamoyl)-1H-pyrazol-1-yl)methyl)imidazo[1,2-a]pyridine-6-carboxylate] |
| < 1 nM | CCOC(=O)CCc1nn(Cc2cn3cc(C4CC4)ccc3n2)cc1C(=O)NCc1ncn2ccc(Cl)cc12 [Example I-93, ethyl 3-(4-(((7-chloroimidazo[1,5-a]pyridin-1-yl)methyl)carbamoyl)-1-((6-cyclopropylimidazo[1,2-a]pyridin-2-yl)methyl)-1H-pyrazol-3-yl)propanoate] |
| 10 to 100 nM | O=C(NCCc1ncn2ccc(Cl)cc12)c1cnn(Cc2cn3cc(C4CC4)ccc3n2)c1 [Example I-94, N-(2-(7-chloroimidazo[1,5-a]pyridin-1-yl)ethyl)-1-((6-cyclopropylimidazo[1,2-a]pyridin-2-yl)methyl)-1H-pyrazole-4-carboxamide] |
| > 2000 nM | O=C(O)c1ccc2nc(Cn3cc(C(=O)NCc4ncn5ccc(Cl)cc45)cn3)cn2c1 [Example I-96, 2-((4-(((7-chloroimidazo[1,5-a]pyridin-1-yl)methyl)carbamoyl)-1H-pyrazol-1-yl)methyl)imidazo[1,2-a]pyridine-6-carboxylic acid] |
| < 1 nM | C#Cc1ccn2cnc(CNC(=O)c3cnn(Cc4cn5nc(C6CC6)ccc5n4)c3)c2c1 [Example I-98, 1-((6-cyclopropylimidazo[1,2-b]pyridazin-2-yl)methyl)-N-((7-ethynylimidazo[1,5-a]pyridin-1-yl)methyl)-1H-pyrazole-4-carboxamide] |
| < 1 nM | CCOC(=O)C=Cc1cc(C2CC2)cn2cc(Cn3cc(C(=O)NCc4ncn5ccc(Cl)cc45)cn3)nc12 [Example I-100a, ethyl 3-(2-((4-(((7-chloroimidazo[1,5-a]pyridin-1-yl)methyl)carbamoyl)-1H-pyrazol-1-yl)methyl)-6-cyclopropylimidazo[1,2-a]pyridin-8-yl)acrylate] |
| < 1 nM | CCOC(=O)CCc1cc(C2CC2)cn2cc(Cn3cc(C(=O)NCc4ncn5ccc(Cl)cc45)cn3)nc12 [Example I-100b, ethyl 3-(2-((4-(((7-chloroimidazo[1,5-a]pyridin-1-yl)methyl)carbamoyl)-1H-pyrazol-1-yl)methyl)-6-cyclopropylimidazo[1,2-a]pyridin-8-yl)propanoate] |
| < 1 nM | O=C(O)CCc1cc(C2CC2)cn2cc(Cn3cc(C(=O)NCc4ncn5ccc(Cl)cc45)cn3)nc12 [Example I-100c, 3-(2-((4-(((7-chloroimidazo[1,5-a]pyridin-1-yl)methyl)carbamoyl)-1H-pyrazol-1-yl)methyl)-6-cyclopropylimidazo[1,2-a]pyridin-8-yl)propanoic acid] |
| < 1 nM | O=C(NCc1ncn2ccc(Cl)cc12)c1cnn(Cc2cn3cc(C4CC4)cc(CN4CCOCC4)c3n2)c1 [Example I-101, N-((7-chloroimidazo[1,5-a]pyridin-1-yl)methyl)-1-((6-cyclopropyl-8-(morpholinomethyl)imidazo[1,2-a]pyridin-2-yl)methyl)-1H-pyrazole-4-carboxamide] |

| SMILES | EC50 |
| --- | --- |
| O=C(NCc1ncn2ccc(Cl)cc12)c1cn(Cc2cn3cc(C4CC4)ccc3n2)nc1C1CC1 [Example I-78, N-((7-chloroimidazo[1,5-a]pyridin-1-yl)methyl)-3-cyclopropyl-1-((6-cyclopropylimidazo[1,2-a]pyridin-2-yl)methyl)-1H-pyrazole-4-carboxamide] | < 1 nM |
| O=C(NCc1ncn2ccc(Cl)cc12)c1cn(Cc2cn3cc(C4CC4)ccc3n2)nn1 [Example I-80, N-((7-chloroimidazo[1,5-a]pyridin-1-yl)methyl)-1-((6-cyclopropylimidazo[1,2-a]pyridin-2-yl)methyl)-1H-1,2,3-triazole-4-carboxamide] | < 1 nM |
| COC(=O)CCc1c(C(=O)NCc2ncn3ccc(Cl)cc23)cnn1Cc1cn2cc(C3CC3)ccc2n1 [Example I-82, methyl 3-(4-(((7-chloroimidazo[1,5-a]pyridin-1-yl)methyl)carbamoyl)-1-((6-cyclopropylimidazo[1,2-a]pyridin-2-yl)methyl)-1H-pyrazol-5-yl)propanoate] | 10 to 100 nM |
| O=C(NCc1ncn2ccc(Br)cc12)c1cn(Cc2cn3cc(C4CC4)ccc3n2)nc1C1CC1 [Example I-85, N-((7-bromoimidazo[1,5-a]pyridin-1-yl)methyl)-3-cyclopropyl-1-((6-cyclopropylimidazo[1,2-a]pyridin-2-yl)methyl)-1H-pyrazole-4-carboxamide] | < 1 nM |
| O=C(O)Cc1cc(C2CC2)cn2cc(Cn3cc(C(=O)NCc4ncn5ccc(Cl)cc45)cn3)nc12 [Example I-86, 2-(2-((4-(((7-chloroimidazo[1,5-a]pyridin-1-yl)methyl)carbamoyl)-1H-pyrazol-1-yl)methyl)-6-cyclopropylimidazo[1,2-a]pyridin-8-yl)acetic acid] | < 1 nM |
| O=C(NCc1ncn2ccc(Cl)cc12)c1cnn(Cc2cn3cc(C4CC4)cc(CCO)c3n2)c1 [Example I-87, N-((7-chloroimidazo[1,5-a]pyridin-1-yl)methyl)-1-((6-cyclopropyl-8-(hydroxyethyl)imidazo[1,2-a]pyridin-2-yl)methyl)-1H-pyrazole-4-carboxamide] | < 1 nM |
| Nc1ccc(C2CC2)c2nc(Cn3cc(C(=O)NCc4ncn5ccc(Cl)cc45)cn3)cn12 [Example I-89, 1-((5-amino-8-cyclopropylimidazo[1,2-a]pyridin-2-yl)methyl)-N-((7-chloroimidazo[1,5-a]pyridin-1-yl)methyl)-1H-pyrazole-4-carboxamide] | 100 to 2000 nM |
| N#Cc1cc(C2CC2)cn2cc(Cn3cc(C(=O)NCc4ncn5ccc(Cl)cc45)cn3)nc12 [Example I-92, N-((7-chloroimidazo[1,5-a]pyridin-1-yl)methyl)-1-((8-cyano-6-cyclopropylimidazo[1,2-a]pyridin-2-yl)methyl)-1H-pyrazole-4-carboxamide] | < 1 nM |
| O=C(NCc1ncn2ccc(Br)cc12)c1cn(Cc2cn3cc(C4CC4)ccc3n2)nc1C(F)F [Example I-95, N-((7-bromoimidazo[1,5-a]pyridin-1-yl)methyl)-1-((6-cyclopropylimidazo[1,2-a]pyridin-2-yl)methyl)-3-(difluoromethyl)-1H-pyrazole-4-carboxamide] | 1 to 10 nM |
| O=C(NCc1ncn2ccc(Cl)cc12)c1cn(Cc2cn3cc(C4CC4)ccc3n2)nc1C(F)F [Example I-99, N-((7-chloroimidazo[1,5-a]pyridin-1-yl)methyl)-1-((6-cyclopropylimidazo[1,2-a]pyridin-2-yl)methyl)-3-(difluoromethyl)-1H-pyrazole-4-carboxamide] | < 1 nM |
